These results are taken from paper PMC8496750, “Identification of the organic anion transporting polypeptides responsible for the hepatic uptake of the major metabolite of epyrifenacil, S‐3100‐CA, in mice” (Pharmacology Research & Perspectives, 2021).

For one data set, the target named is T1, mouse Oatp1b2 (Mus musculus, UniProt Q9JJL3).
T1 sequence (Q9JJL3 1-689): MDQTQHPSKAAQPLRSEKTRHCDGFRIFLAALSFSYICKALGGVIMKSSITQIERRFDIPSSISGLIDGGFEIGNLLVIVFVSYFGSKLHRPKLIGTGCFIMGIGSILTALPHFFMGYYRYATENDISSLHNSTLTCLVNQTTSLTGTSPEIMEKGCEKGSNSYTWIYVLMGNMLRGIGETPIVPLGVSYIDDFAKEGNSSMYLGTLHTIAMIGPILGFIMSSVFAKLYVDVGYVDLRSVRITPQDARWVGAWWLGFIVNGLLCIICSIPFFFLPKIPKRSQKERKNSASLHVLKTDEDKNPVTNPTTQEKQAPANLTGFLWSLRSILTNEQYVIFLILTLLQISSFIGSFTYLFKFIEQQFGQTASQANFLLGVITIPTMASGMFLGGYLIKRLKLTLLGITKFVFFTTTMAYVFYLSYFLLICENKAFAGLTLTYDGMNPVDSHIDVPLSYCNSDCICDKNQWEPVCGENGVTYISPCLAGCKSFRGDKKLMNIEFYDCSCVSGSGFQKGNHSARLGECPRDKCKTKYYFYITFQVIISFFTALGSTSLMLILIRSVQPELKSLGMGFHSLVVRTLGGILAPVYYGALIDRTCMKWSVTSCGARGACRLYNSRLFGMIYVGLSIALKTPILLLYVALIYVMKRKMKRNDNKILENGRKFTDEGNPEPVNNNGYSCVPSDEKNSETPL
In words: Inhibition of S‐3100‐CA uptake by OATP inhibitors, mouse Oatp1b2. The class given is in vitro ADME. The arrangement: expressed in transfected cells; host or cells: 293FT cells. To be noted: inhibitor at 100 μM. How it is done:
293FT cells were purchased from Thermo Fisher Scientific, Inc.. The cells were grown in Dulbecco's modified Eagle medium (supplemented with 4.5 g/L glucose and 2 mM L‐glutamine) at 37°C, 5% CO2, and 95% humidity. The cells were passaged 3 times per week by harvesting cells using trypsin and plating at a density of 1.0 × 10^4 cells/cm^2 in a 10 cm cell culture plate for maintenance culture. The 293FT cells were detached using trypsin and re‐seeded at a density of 2.5 × 10^4 cells/cm^2 in BioCoat™ Collagen I 6‐well plates (Corning Inc.) for transfection and then treated with 1.2 μg of plasmid vector and 3.2 μl of Lipofectamine™ 2000 Transfection Reagent (Thermo Fisher Scientific, Inc.) according to the manufacturer's instructions. After a 3‐h treatment, the transfection medium was replaced with a fresh cell culture medium and incubated at 37°C with 95% humidity and 5% CO2 until ready for the assay.
Transport experiments were conducted approximately 24 h post‐transfection. […] From the lysate, 1.0 ml was transferred to a vial containing 10 ml of Emulsifier Scintillator Plus to measure the radioactivity in the LSC. The protein concentration of the cell lysate was also measured using a Pierce™ BCA Protein Assay Kit (Thermo Fisher Scientific, Inc.), which was used to normalize, according to the cell number, the radioactivity in the cell lysate extract. […]

The next data set deals with hepatocytes. More on the design: method as in PMID 34908893. To be noted: mouse vs human hepatocytes; cited from earlier work.
Data set [1] can be described thus: Blood ^14C‐concentrations study. The format is in vivo, Crl:CD1(ICR) mice. To be noted: 1 mg/kg single oral. The protocol:
Crl:CD1(ICR) mice at the age of 7 weeks were purchased from Charles River Laboratories Japan, Inc., Hino Breeding Center. The mice at the age of 8 or 9 weeks were dosed after completing a 7‐day quarantine period and an additional 0‐ to 7‐day acclimatization period. All animal experiments were conducted in accordance with the Guidance for the Care and Use of Laboratory Animals in our laboratory, which corresponds to the Guidelines for Proper Conduct of Animal Experiments (Science Council of Japan). Animals were maintained under constant environmental conditions: room temperature, 21−25°C; relative humidity, 55% ±15%; ventilation, 10 air exchanges per hour; and artificial lighting, from 8:00 am to 8:00 pm. The animals were provided with pelleted diet and water ad libitum. […] All animals were euthanized by bleeding from the abdominal artery under anesthesia.
[^14C]Epyrifenacil was isotopically diluted with the unlabeled test compound to adjust the specific activity to 5.00 MBq/mg. After evaporation of the solvent under nitrogen gas flow, labeled material was suspended in 0.5% (w/v) methylcellulose solution at a concentration of 1 mg/5 ml by grinding in a mortar. The suspension was stored frozen until the start of dosing. […] These dosing suspensions were stored in a refrigerator until dosing commenced.
Two mice per sex at 8 weeks old were given a single oral dose of [^14C]epyrifenacil at 1 mg/kg. Approximately 0.06–0.08 g of blood sample was periodically taken from the saphenous vein at 1, 2, 4, and 8 h after administration, and transferred to vials to measure the radioactivity in whole blood. […] AUC0‐∞ was calculated as the sum of AUC0‐8 h and AUC8 h‐∞. AUC0‐8 h was obtained using a trapezoidal rule, and AUC8 h‐∞ was calculated with a mono‐exponential equation describing the ^14C‐disappearance phase.

As to `CO[C@H]1/C=C/O[C@@]2(C)Oc3c(C)c(O)c4c(O)c(c(/C=N/N5CCN(C)CC5)c(O)c4c3C2=O)NC(=O)/C(C)=C\C=C\[C@H](C)[C@H](O)[C@@H](C)[C@@H](O)[C@@H](C)[C@H](OC(C)=O)[C@@H]1C` [RIF, Rifampicin], the “Uptake of S‐3100‐CA, % of that by vehicle‐treated cells” value on mouse Oatp1b2 was “less than 40%”.

In the case of `Cn1c(C(F)(F)F)cc(=O)n(-c2cc(Oc3cccnc3OCC(=O)O)c(Cl)cc2F)c1=O` [S‐3100‐CA], the “Amount taken up by mouse hepatocytes relative to human hepatocytes” value in the data set on hepatocytes is 6–13 times.

In the case of `CCOC(=O)COc1ncccc1Oc1cc(-n2c(=O)cc(C(F)(F)F)n(C)c2=O)c(F)cc1Cl` [Epyrifenacil, ethyl[(3‐{2‐chloro‐4‐fluoro‐5‐[3‐methyl‐2,6‐dioxo‐4‐(trifluoromethyl)‐3,6‐dihydropyrimidin‐1(2H)‐yl]phenoxy}pyridin‐2‐yl)oxy]acetate], the “^14C‐Concentration in blood” value in data set [1] (1 h, Female Animal_1) was 0.127 µg eq. of epyrifenacil/g; in data set [1] (1 h, Female Animal_2) it was 0.073 µg eq. of epyrifenacil/g; in data set [1] (1 h, Male Animal_1), 0.030 µg eq. of epyrifenacil/g; in data set [1] (1 h, Male Animal_2), 0.030 µg eq. of epyrifenacil/g; in data set [1] (2 h, Female Animal_1), 0.111 µg eq. of epyrifenacil/g; in data set [1] (2 h, Female Animal_2), 0.064 µg eq. of epyrifenacil/g. Moreover, the “^14C‐Concentration in blood” value in data set [1] (2 h, Male Animal_1) is reported as 0.031 µg eq. of epyrifenacil/g; in data set [1] (2 h, Male Animal_2), 0.034 µg eq. of epyrifenacil/g; in data set [1] (4 h, Female Animal_1), 0.076 µg eq. of epyrifenacil/g; in data set [1] (4 h, Female Animal_2), 0.060 µg eq. of epyrifenacil/g; in data set [1] (4 h, Male Animal_1) it was 0.028 µg eq. of epyrifenacil/g; in data set [1] (4 h, Male Animal_2), 0.051 µg eq. of epyrifenacil/g. Moreover, the “^14C‐Concentration in blood” value is 0.045 µg eq. of epyrifenacil/g in data set [1] (8 h, Female Animal_1); 0.061 µg eq. of epyrifenacil/g in data set [1] (8 h, Female Animal_2); 0.024 µg eq. of epyrifenacil/g in data set [1] (8 h, Male Animal_1); 0.033 µg eq. of epyrifenacil/g in data set [1] (8 h, Male Animal_2). Also, the “C max of ^14C in blood” value in data set [1] (female mice) is reported as 0.100 μg eq. of epyrifenacil/g; in data set [1] (male mice), 0.040 μg eq. of epyrifenacil/g.
